Legend:
[1] = target: ubiquinone-binding site of complex I (site IQ) (Rattus norvegicus, UniProt A6K8N6+P03889+Q641Y2); assay: site IQ superoxide/H2O2 production assay; type: biochemical; details: at the compound's estimated IC50 (80 µM for compound 15); 5 mM succinate
[2] = test system: site IF/DH (site IF plus matrix NAD-linked dehydrogenases); assay: site IF/DH superoxide/H2O2 production assay; type: biochemical, rat
[3] = test system: flavin site of complex II (site IIF); assay: site IIF superoxide/H2O2 production assay; type: biochemical, rat
[4] = test system: outer ubiquinone-binding site of complex III (site IIIQo); assay: site IIIQo superoxide/H2O2 production assay; type: biochemical, rat
[5] = test system: mitochondrial sn-glycerol 3-phosphate dehydrogenase (mGPDH); assay: mGPDH superoxide/H2O2 production assay; type: biochemical, rat
[6] = test system: mitochondrial membrane potential (ΔΨm); assay: ΔΨm assay with potentiometric dye TMRM; type: biochemical, rat; details: for lowest concentration that significantly decreased ΔΨm: 5 mM glutamate plus 5 mM malate
[7] = test system: complex I; assay: rate of reverse electron transport from succinate to NAD; type: biochemical, rat
[8] = test system: site IQ; type: biochemical, rat; details: […] CN-POBS
[9] = test system: site IF; assay: steady-state H2O2 production specifically from site IF; type: biochemical, rat; details: […] CN-POBS; 5 mM malate, […] ATP, 1.5 mM aspartate, 4 µM rotenone, 1 µg/mL oligomycin
[10] = ref NCBI PubChem compound database; cited from earlier work
[11] = at the compound's estimated site IQ IC50 (80 µM for compound 15)
[12] = dose-response 0.08-80 µM, none observed below this

## O=[N+]([O-])c1ccc(Oc2ccc(S(=O)(=O)NC3CCCCC3)cc2)cc1 [CN-POBS, N-cyclohexyl-4-(4-nitrophenoxy)benzenesulfonamide]
[1]
  IQ: normalized percent change from DMSO in H2O2 production: −56%
[2]; [11]
  IF/DH: normalized percent change from DMSO in H2O2 production: 7%
[2]; [12]
  concentration with significant effects on H2O2 production from site IF/DH: ≥ 25 µM
[3]; [11]
  IIF: normalized percent change from DMSO in H2O2 production: 4%
[3]; [12]
  concentration with significant effects on H2O2 production from site IIF: ≥ 25 µM
[4]; [11]
  IIIQo: normalized percent change from DMSO in H2O2 production: 0%
[4]; [12]
  concentration with significant effects on H2O2 production from site IIIQo: ≥ 25 µM
[5]; [11]
  mGPDH: normalized percent change from DMSO in H2O2 production: −2%
[5]; [12]
  concentration with significant effects on H2O2 production from mGPDH: ≥ 25 µM
[6]; absence of nigericin, TMRM
  lowest concentration that significantly decreased ΔΨm: 8 µM
[6]; presence of nigericin, TMRM
  lowest concentration that significantly decreased ΔΨm: 25 µM
[6]; 5 mM succinate and 4 µM rotenone, TMRM
  concentration that significantly decreased ΔΨm: 80 µM
[6]; [11]
  ΔΨm: normalized percent change from DMSO: −1%
[7]; 5 mM succinate plus 0.5 mM glutamate, no significant effect below this
  concentration with significant effect on reverse electron flux through complex I (rate of NAD(P)+ reduction): ≥ 25 µM
[7]; at the compound's estimated site IQ IC50, succinate via complex I
  Rate of NAD(P)+ Reduction: normalized percent change from DMSO: −1%
[8]; 5 mM succinate alone
  decrease in total rate of H2O2 production: 50%
[8]; 5 mM succinate with 4 µM rotenone
  effect on H2O2 production by succinate in the presence of rotenone (from site IF/DH): no significant effect
[9]
  effect on H2O2 production specifically from site IF: no effect
[10]
  LogP: 4.1
